PMC10766943, “Synthesis, characterization, Hirshfeld surface analysis, antioxidant and selective β-glucuronidase inhibitory studies of transition metal complexes of hydrazide based Schiff base ligand” (Scientific Reports, 2024)

Columns and labels:
β-glucuronidase = settings: cited from earlier work
β-glucuronidase enzyme = target: T1, β-glucuronidase enzyme (Bos taurus, UniProt A3KMY8); assay: β-Glucuronidase inhibitory activity (p-nitrophenyl-β-D-glucuronide, 405 nm); assay type: biochemical; settings: Conc. 0.05 mM
T1 sequence (A3KMY8 24-652): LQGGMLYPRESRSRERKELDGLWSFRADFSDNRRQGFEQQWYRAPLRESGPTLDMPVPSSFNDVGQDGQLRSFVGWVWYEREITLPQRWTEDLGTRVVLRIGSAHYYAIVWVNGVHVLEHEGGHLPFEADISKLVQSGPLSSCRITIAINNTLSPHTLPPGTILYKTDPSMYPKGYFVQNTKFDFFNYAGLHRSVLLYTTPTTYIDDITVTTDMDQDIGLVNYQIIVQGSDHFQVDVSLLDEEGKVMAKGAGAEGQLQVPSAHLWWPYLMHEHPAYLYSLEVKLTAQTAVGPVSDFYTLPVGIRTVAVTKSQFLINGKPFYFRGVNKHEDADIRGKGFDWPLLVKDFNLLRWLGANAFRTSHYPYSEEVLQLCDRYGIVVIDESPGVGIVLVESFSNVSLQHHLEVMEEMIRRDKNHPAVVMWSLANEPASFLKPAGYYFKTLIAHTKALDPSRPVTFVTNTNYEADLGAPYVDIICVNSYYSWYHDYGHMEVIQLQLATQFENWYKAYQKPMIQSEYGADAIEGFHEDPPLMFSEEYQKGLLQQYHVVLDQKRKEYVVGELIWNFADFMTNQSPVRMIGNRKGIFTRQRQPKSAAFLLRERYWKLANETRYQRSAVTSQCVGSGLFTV
Description: β-Glucuronidase inhibitory activity by hydrazide Schiff base ligand (H-AHMB) and its metal (II) complexes was investigated using standard procedure. […] According to the procedure 185 µL of 0.1 M acetate buffer, 5 µL compound to be tested and 10 µL of enzyme solution were mixed and incubated at 37 °C for 30 min. SpectraMax plus 384, Molecular Devices, USA was used to read on a multiplate reader at 405 nm after the addition of 0.4 mM p-nitrophenyl-β-D-glucuronide (50 µL). All experiments were performed in triplicate.

DPPH radical scavenging [1] = settings: for IC50: DPPH scavenging
Description: The synthetic Schiff base ligand and its metal complexes were tested for their ability to scavenge DPPH radicals using the methodology described by Soare, Dinis, Cunha, and Almeida in 1997[64]. Initially, 1 mL of 0.2 mM DPPH dissolved in methanol was combined with 0.1 mL of each sample at 250, 500, 750, and 1000 µg/mL concentrations. For 20 min, the reaction mixture was kept at 28 °C and kept in the dark. Methanol served as the control, which had all the components but no sample. A UV/Vis spectrophotometer was used to detect the absorbance at 517 nm in order to assess the DPPH radical scavenging activity. For comparison, the DPPH radical scavenging capacity of ascorbic acid was also determined. %Inhibitioneffect=Ac-As/Ac×100
Ac = Absorbance by the control, As = Absorbance by the sample[37].

DPPH radical scavenging [2] = settings: Conc. 0.05 mM

| Molecule | inhibition of the β-glucuronidase enzyme (β-glucuronidase) | % inhibition (β-glucuronidase enzyme) [%] | IC50 (DPPH radical scavenging [1]) [µM] | % Radical scavenging activity (DPPH radical scavenging [2]) [%] | antioxidant potential against DPPH free radicals (in words) (DPPH radical scavenging [1]) |
| --- | --- | --- | --- | --- | --- |
| CC(=O)O[C@@H]1C(=O)O[C@H]2[C@@H]1OC(=O)[C@@H]2OC(C)=O [2,5-di-O-acetyl-D-glucaro-1,4:6,3-Dilactone] | marked inhibition | – | – | – | – |
| O=C[C@H](O)[C@H]1OC(=O)[C@@H](O)[C@H]1O [D-glucurono-γ-lactone] | marked inhibition | – | – | – | – |
| O=C1OC(C(O)C(=O)O)C(O)C1O [D-saccharic acid-1,4-lactone, reference compound] | – | 89.4 | – | – | – |
| O=C(O)c1cc(O)c(O)c(O)c1 [Gallic acid, reference compound] | – | – | 63 ± 0.43 | 93.13 | – |
| COc1cc(C=NNC(=O)c2ccccc2N)ccc1O [H-AHMB, N′-[(4-hydroxy-3-methoxyphenyl)methylidene] 2-aminobenzohydrazide] | – | – | – | 22.97 | inactive |
| Cobalt adduct with N′-[(4-hydroxy-3-methoxyphenyl)methylidene] 2-aminobenzohydrazide [Co-AHMB] | – | 78.8 | 98.2 ± 1.78 | 88.46 | – |
| Copper adduct with N′-[(4-hydroxy-3-methoxyphenyl)methylidene] 2-aminobenzohydrazide [Cu-AHMB] | – | 73.3 | 183 ± 6.6 | 84.29 | – |
| Nickel adduct with N′-[(4-hydroxy-3-methoxyphenyl)methylidene] 2-aminobenzohydrazide [Ni-AHMB] | – | 96.0 | 467 ± 2.9 | 52.40 | – |
| Zinc adduct with N′-[(4-hydroxy-3-methoxyphenyl)methylidene] 2-aminobenzohydrazide [Zn-AHMB] | – | 98.3 | – | 49.16 | – |
